Experimental data: PMC9181924, “Antiproliferative and Proapoptotic Effects of Phenanthrene Derivatives Isolated from Bletilla striata on A549 Lung Cancer Cells” (Molecules, 2022)
“And” between values parts separate entries of the source, which are not always exact repeats. Equal values may be shown once. Read-outs that look alike come from different tables or passages of the source.

Legend:
[1] = tested on: A549 cells; test: MTT cytotoxicity assay on A549 cells; assay type: cell-based, human; conditions: mean ± SD, n = 3, read-out: IC50, cytotoxicity against A549 cells
Excerpt: (§1) The purity of the tested compounds was more than 98%. The cytotoxic effects of isolated phenanthrenes on A549 and BEAS-2B cells were examined by MTT experiments as described in our previous report.

[2] = tested on: A549 cells; test: Cell cycle analysis by flow cytometry; assay type: cell-based, human; conditions: 48 h; for percentage of G0/G1 phase cells / percentage of S phase cells: Figure 3C; for percentage of G2/M phase cells: untreated control 7.41 ± 0.79%
Protocol: According to the manufacture’s instructions, the cells were treated with compound 1 (3.13, 6.25, and 12.5 μM) for 48 h. Then, they were cultured with 500 μL staining solution (RNase A:PI = 1:9) for 1 h at room temperature without light after fixation with 70% pre-chilled ethanol for 2 h. The DNA content was instantly detected with a BD FACSCanto II flow cytometer (BD Biosciences, Franklin Lakes, NJ, USA).

[3] = tested on: ERK1/2; test: Western blot, ERK1/2 phosphorylation in A549 cells; assay type: cell-based, human; conditions: A549, 3.13, 6.25, and 12.5 µM, 48 h; p < 0.05 at 3.13 μM, p < 0.01 at 6.25 and 12.5 μM vs control
Protocol: (§2) SDS–PAGE and PVDF membranes were used to separate and transfer the protein, respectively. […] The membranes were washed with TBST and incubated with an HRP-conjugated secondary antibody for 1 h at 37 °C. Finally, the protein bands were detected with a Tanon 5200 chemiluminescent imaging system (Tanon, Shanghai, China).

[4] = tested on: A549 cells; test: EdU proliferation experiment; assay type: cell-based, human; conditions: 48 h, control 100%
Protocol: The cells were digested by trypsin and cultivated in 96-well plates (3.5 × 10^3 cells per well) for 24 h. They were incubated with compound 1 (3.13, 6.25, and 12.5 μM) for 48 h. Next, prepared EdU-labeling solution (10 µM) was used to stain the cells in an incubator at 37 °C for 2 h. The cells were fixed for 15 min with 4% cold paraformaldehyde. After that, Triton X-100 (0.3%) and Click-iT reaction cocktail were successively used to handle cells. Finally, DAPI staining was applied to the cells to counterstain them. A Leica DMI3000B inverted fluorescence microscope (Leica, Wetzlar, Germany) was used to capture the fluorescent images. In addition, to count the cells, ImageJ software (version 1.8.0) (National Institutes of Health, Bethesda, MD, USA) was used. EdU positive cells (%) = (green EdU-stained cells/blue DAPI-stained cells) × 100.

[5] = tested on: A549 cells; test: Wound healing assay; assay type: cell-based, human; conditions: 24 h, control 56.46 ± 4.46%
Protocol: Cells were placed in 6-well plates for the wound healing test. The scratches were formed using a sterile 200-µL pipette tip when the cells treated with compound 1 (3.13, 6.25, and 12.5 μM) had grown to 90% confluence. After a 24-h incubation, the images were obtained with the Leica microscope and the scratch area was calculated with the ImageJ.

[6] = MTT cytotoxicity assay on BEAS-2B cells; assay type: cell-based; conditions: BEAS-2B cells (normal human lung cells), BEAS-2B normal human lung cells, read-out: IC50, cytotoxic effect on BEAS-2B cells
Excerpt: as §1

[7] = tested on: Bcl-2; test: Western blot, Bcl-2 expression in A549 cells; assay type: cell-based, human; conditions: A549, 3.13, 6.25, and 12.5 μM, 48 h; p < 0.01 vs control
Protocol: as §2

[8] = tested on: A549 cells; test: Transwell migration assay; assay type: cell-based, human; conditions: 24 h, control 100%
Protocol: The migratory effect of compound 1 (3.13, 6.25, and 12.5 μM) on A549 cells was further detected by using transwell chambers. Briefly, the cells treated with compound 1 were placed into the upper wells, while the medium with 10% FBS was added to the bottom wells. After a 24-h incubation, non-migrated cells were cleaned up, and the migrated cells were fixed for 30 min with 4% paraformaldehyde and dyed by 0.1% crystal violet. The images and the cell numbers were obtained by the Leica microscope and ImageJ, respectively.

[9] = tested on: Akt; test: Western blot, Akt phosphorylation in A549 cells; assay type: cell-based, human; conditions: A549, 3.13, 6.25, and 12.5 µM, 48 h; p < 0.05 at 3.13 μM, p < 0.01 at 6.25 and 12.5 μM vs control
Protocol: as §2

[10] = tested on: Bax; test: Western blot, Bax expression in A549 cells; assay type: cell-based, human; conditions: A549, 6.25 and 12.5 μM, 48 h; p < 0.01 vs control
Protocol: as §2

[11] = tested on: A549 cells; test: Apoptosis by flow cytometry (Annexin V/PI); assay type: cell-based, human; conditions: 48-h treatment, control 1.21 ± 0.37%
Protocol: Quadrants 2 (Annexin V+/PI+) and 3 (Annexin V+/PI−) pointed to the percentage of apoptotic cells. As for the control group, the apoptosis rate was only 1.21 ± 0.37%. […] The data disclosed that compound 1 greatly promoted the apoptosis of A549 cells, especially in the high-concentration group (12.5 µM).
The A549 cells were treated with compound 1 (3.13, 6.25, and 12.5 μM), and the cell apoptosis was detected by flow cytometry assay as described in our previous report.

[12] = tested on: MEK1/2; test: Western blot, MEK1/2 phosphorylation in A549 cells; assay type: cell-based, human; conditions: A549, 3.13, 6.25, and 12.5 μM, 48 h; p < 0.01 vs control
Protocol: as §2

Molecule `COc1cc(O)c(Cc2ccc(O)cc2)c2c1-c1ccc(O)cc1CC2` [Compound 12, 1-(p-hydroxybenzyl)-4-methoxy-9,10-dihydrophenanthrene-2,7-diol] has an IC50 ([1]; Homo sapiens, A549, A549 cells) of 33.3 ± 0.49 µM.

`COc1cc(O)cc2c1-c1ccc(O)cc1CC2` [Compound 9, 2,7-dihydroxy-4-methoxy-9,10-dihydrophenanthrene] showed an IC50 ([1]; Homo sapiens, A549, A549 cells) of 51.5 ± 1.87 µM.

In the case of `COc1cc(O)c(Cc2ccc(O)cc2)c2c1-c1ccc(Oc3c(O)cc(OC)c4c3CCc3cc(O)ccc3-4)cc1CC2` [Compound 8, blestanol C], the IC50 ([1]; A549 cells) is reported as 8.62 ± 0.64 µM and the IC50 ([1]; Homo sapiens, A549, A549 cells) is reported as less than 10 µM.

`COc1cc(O)c(-c2c(O)cc3c(c2OC)-c2ccc(O)cc2CC3)c2c1-c1ccc(O)cc1CC2` [Compound 3, blestrianol A] gave an IC50 ([1]; Homo sapiens, A549, A549 cells) of 10.5 ± 2.55 µM.

`COc1cc2ccc3cc(O)ccc3c2c(OC)c1O` [Compound 16, 3,7-dihydroxy-2,4-dimethoxyphenanthrene] gave an IC50 ([1]; Homo sapiens, A549, A549 cells) of 63.8 ± 4.67 µM.

For `COc1cc(O)c(Cc2ccc(O)cc2)c2ccc3cc(O)ccc3c12` [Compound 17, 1-(p-hydroxybenzyl)-4-methoxyphenanthrene-2,7-diol], the IC50 ([1]; Homo sapiens, A549, A549 cells) was 32.6 ± 2.33 µM.

For `COc1cc(O)cc2c1-c1ccc(O)c(-c3c(O)cc(OC)c4c3CCc3cc(O)ccc3-4)c1CC2` [Compound 1, 4,5′-dimethoxy-9,9′,10,10′-tetrahydro-[1,1′-biphenanthrene]-2,2′,7,7′-tetraol], the IC50 ([1]; A549 cells) was 6.86 ± 0.71 µM, the IC50 ([1]; Homo sapiens, A549, A549 cells) was less than 10 µM and the “percentage of G0/G1 phase cells” value ([2]; A549, 3.13 μM) was 76.42%. The “percentage of S phase cells” value ([2]; A549, 3.13 μM) was 11.73%, the “percentage of G2/M phase cells” value ([2]; A549, 3.13 μM) was 11.85 ± 1.26% and 11.85% and the “percentage of G0/G1 phase cells” value ([2]; A549, 6.25 μM) was 70.16%. The “percentage of S phase cells” value ([2]; A549, 6.25 μM) was 15.31%, the “percentage of G2/M phase cells” value ([2]; A549, 6.25 μM) was 14.53 ± 1.75% and 14.53% and the “percentage of G0/G1 phase cells” value ([2]; A549, 12.5 μM) was 50.11%. The “percentage of S phase cells” value ([2]; A549, 12.5 μM) was 22.81%, the “percentage of G2/M phase cells” value ([2]; A549, 12.5 μM) was 27.08 ± 2.65% and 27.08% and the “expression ratio of p-ERK/ERK” value [3] was “significantly suppressed”. The “percentage of EdU-positive cells” value ([4]; A549, 3.13 μM) was 67.66 ± 4.51%, the “percentage of EdU-positive cells” value ([4]; A549, 6.25 μM) was 56.33 ± 4.50% and the “percentage of EdU-positive cells” value ([4]; A549, 12.5 μM) was 34.01 ± 4.58%. For the same molecule, the “migration rate (wound healing)” value ([5]; A549, 3.13 µM) was 31.10 ± 2.92%, the “migration rate (wound healing)” value ([5]; A549, 6.25 µM) was 15.23 ± 1.81% and the “migration rate (wound healing)” value ([5]; A549, 12.5 µM) was 11.01 ± 1.81%. The IC50 [6] was 15.2 ± 1.62 µM, the Bcl-2/Bax ratio [7] was “reduced” and the Bcl-2 protein levels [7] was “significantly decreased”. For the same molecule, the “migrated cell numbers (transwell)” value ([8]; A549, 3.13 µM) was 72.09 ± 4.65%, the “migrated cell numbers (transwell)” value ([8]; A549, 6.25 µM) was 29.45 ± 2.92% and the “migrated cell numbers (transwell)” value ([8]; A549, 12.5 µM) was 10.19 ± 1.25%. For the same molecule, the “expression ratio of p-Akt/Akt” value [9] was “significantly suppressed”, the Bax protein levels [10] was “increased” and the “apoptosis rate (Annexin V+/PI+ and Annexin V+/PI−)” value (“apoptosis rate” below) ([11]; A549, 3.13 µM) was 2.57 ± 0.53%. For the same molecule, the “apoptosis rate” value ([11]; A549, 6.25 µM) was 12.25 ± 2.21%, the “apoptosis rate” value ([11]; A549, 12.5 µM) was 49.79 ± 8.54% and the “expression ratio of p-MEK/MEK” value [12] was “significantly suppressed”.

In the case of `COc1cc(O)cc2c1-c1cc(-c3c(O)cc(OC)c4c3CCc3cc(O)ccc3-4)c(O)cc1CC2` [Compound 4, gymconopin C], the IC50 ([1]; A549 cells) is reported as 9.91 ± 0.68 µM and the IC50 ([1]; Homo sapiens, A549, A549 cells) is reported as less than 10 µM.

`COc1cc(O)c(Cc2ccc(O)cc2)c2c1-c1cc(Cc3ccc(O)cc3)c(O)cc1CC2` [Compound 14, 1,6-bis(p-hydroxybenzyl)-4-methoxy-9,10-dihydrophenanthrene-2,7-diol] gave an IC50 ([1]; Homo sapiens, A549, A549 cells) of 12 ± 0.79 µM.

With `COc1ccc(Cc2c(O)cc(O)c3c2CCc2cc(OC)ccc2-3)cc1` [Compound 13, pleioanthrenin] the IC50 ([1]; A549 cells) was 9.52 ± 0.47 µM and the IC50 ([1]; Homo sapiens, A549, A549 cells) was less than 10 µM.

`COc1c(O)ccc2c1ccc1c(-c3c(O)cc(OC)c4c3ccc3cc(O)ccc34)c(O)cc(OC)c12` [Compound 5, bleformin G] showed an IC50 ([1]; Homo sapiens, A549, A549 cells) greater than 100 µM.

For `COc1cc(O)c(-c2c(O)cc(OC)c3c2ccc2cc(O)ccc23)c2ccc3cc(O)ccc3c12` [Compound 6, blestriarene C], the IC50 ([1]; A549 cells) was 9.45 ± 0.52 µM and the IC50 ([1]; Homo sapiens, A549, A549 cells) was less than 10 µM.

With `COc1cc(O)c(O)c2c1-c1ccc(O)cc1CC2` [Compound 10, 4-methoxy-9,10-dihydrophenanthrene-1,2,7-triol] the IC50 ([1]; Homo sapiens, A549, A549 cells) was 16.3 ± 2.22 µM.

With `COc1cc(O)c(-c2c(O)cc3c(c2OC)-c2ccc(O)c(Cc4ccc(O)cc4)c2CC3)c2c1-c1ccc(O)cc1CC2` [Compound 2, 4,4′-dimethoxy-8′-(p-hydroxybenzyl)-9,9′,10,10′-tetrahydro-[1,3′-biphenanthrene]-2,2′,7,7′-tetraol] the IC50 ([1]; A549 cells) was 8.75 ± 0.61 µM and the IC50 ([1]; Homo sapiens, A549, A549 cells) was less than 10 µM.
